Reference: PubChem BioAssay AID256 (DTP/NCI, 2004)
Several values for one entry are separate records, joined by “and”; a condition that tells them apart may be missing. Identical values can stand only once. Inconclusive results and toxic doses are left out.

System: CD2F1 mice, L1210 leukemia ip, survival T/C
Assay: NCI In Vivo Anticancer Drug Screen. Data for tumor model L1210 Leukemia (intraperitoneal) in CD2F1 (CDF1) mice
Conditions: higher = longer survival
How it was run: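 Read-out first: treated-group measurement over vehicle-control measurement, expressed as a ratio. Animals bore a transplanted tumor line and were dosed with compound or vehicle.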

[1] = endpoint: mean survival time, dose: 100.0 mg/kg/injection, schedule: Q04DX003 (ip), vehicle: saline
[2] = endpoint: mean survival time, dose: 200.0 mg/kg/injection, schedule: Q04DX003 (ip), vehicle: saline
[3] = endpoint: mean survival time, dose: 100.0 mg/kg/injection, schedule: Q04DX003 (ip), vehicle: saline with Tween-80
[4] = endpoint: mean survival time, dose: 200.0 mg/kg/injection, schedule: Q04DX003 (ip), vehicle: saline with Tween-80
[5] = endpoint: mean survival time, dose: 400.0 mg/kg/injection, schedule: Q04DX003 (ip), vehicle: saline with Tween-80
[6] = endpoint: mean survival time, dose: 100.0 mg/kg/injection, schedule: Q04DX003 (ip), vehicle: acetone
[7] = endpoint: mean survival time, dose: 200.0 mg/kg/injection, schedule: Q04DX003 (ip), vehicle: acetone
[8] = endpoint: mean survival time, dose: 400.0 mg/kg/injection, schedule: Q04DX003 (ip), vehicle: acetone
[9] = endpoint: mean survival time, dose: 100.0 mg/kg/injection, schedule: Q01DX009 (ip), vehicle: saline with Tween-80
[10] = endpoint: mean survival time, dose: 200.0 mg/kg/injection, schedule: Q01DX009 (ip), vehicle: saline with Tween-80
[11] = endpoint: mean survival time, dose: 400.0 mg/kg/injection, schedule: Q01DX009 (ip), vehicle: saline with Tween-80

CC(=O)NCCN
T/C (endpoint: mean survival time, dose: 50.0 mg/kg/injection, schedule: Q04DX003 (ip), vehicle: saline): 101 % of control | T/C [1]: 95 % of control | T/C [2]: 97 % of control

Cc1ccc(C2CC(c3ccccc3)=NN2C)cc1 (stereo unspecified)
T/C (endpoint: mean survival time, dose: 75.0 mg/kg/injection, schedule: Q01DX001 (ip), vehicle: other): 96 % of control | T/C (endpoint: mean survival time, dose: 150.0 mg/kg/injection, schedule: Q01DX001 (ip), vehicle: other): 90 % of control | T/C (endpoint: mean survival time, dose: 300.0 mg/kg/injection, schedule: Q01DX001 (ip), vehicle: other): 93 % of control

CN(C)CCC(=O)c1cccc(O)c1
T/C (endpoint: mean survival time, dose: 100.0 mg/kg/injection, schedule: Q04DX002 (ip), vehicle: saline with Tween-80): 104 % of control | T/C (endpoint: mean survival time, dose: 200.0 mg/kg/injection, schedule: Q04DX002 (ip), vehicle: saline with Tween-80): 101 % of control

CCCCCCCCCCCCOB(OCCCCCCCCCCCC)OCCCCCCCCCCCC
T/C [3]: 95 % of control | T/C [4]: 103 % of control | T/C [5]: 94 % of control

Nc1ccn(C2OC(CO)C(O)C2Br)c(=O)n1 (stereo unspecified)
T/C (endpoint: median survival time, dose: 12.5 mg/kg/injection, schedule: Q01DX005 (ip), vehicle: saline): 108 % of control | T/C (endpoint: median survival time, dose: 25.0 mg/kg/injection, schedule: Q01DX005 (ip), vehicle: saline): 107 % of control | T/C (endpoint: median survival time, dose: 50.0 mg/kg/injection, schedule: Q01DX005 (ip), vehicle: Klucel (hydroxypropylcellulose) (HPC)): 118 % of control | T/C (endpoint: median survival time, dose: 50.0 mg/kg/injection, schedule: Q01DX005 (ip), vehicle: saline): 119 % of control | T/C (endpoint: median survival time, dose: 200.0 mg/kg/injection, schedule: Q01DX005 (ip), vehicle: saline): 150 % of control

COC1OC(C)CC(C)(C)O1 (stereo unspecified)
T/C (endpoint: mean survival time, dose: 100.0 mg/kg/injection, schedule: Q04DX002 (ip), vehicle: saline): 89 % of control | T/C (endpoint: mean survival time, dose: 200.0 mg/kg/injection, schedule: Q04DX002 (ip), vehicle: saline): 96 % of control | T/C (endpoint: mean survival time, dose: 400.0 mg/kg/injection, schedule: Q04DX002 (ip), vehicle: saline): 100 % of control

COC(=O)C1CC2C=CC1CC2 (stereo unspecified)
T/C [1]: 97 % of control | T/C [2]: 105 % of control | T/C (endpoint: mean survival time, dose: 400.0 mg/kg/injection, schedule: Q04DX003 (ip), vehicle: saline): 95 % of control

O=C(CCCC1CCCCC1)Cc1ccccc1
T/C [6]: 96 % of control | T/C [7]: 94 % of control | T/C [8]: 102 % of control

Cc1nc(-c2ccccc2)nc2c1CCO2
T/C [3]: 102 % of control | T/C [4]: 100 % of control | T/C [5]: 105 % of control

CN(C)N=Nc1ccc(Cl)cc1C(=O)O
T/C (endpoint: mean survival time, dose: 266.0 mg/kg/injection, schedule: Q04DX003 (ip), vehicle: other): 114 % of control | T/C (endpoint: mean survival time, dose: 400.0 mg/kg/injection, schedule: Q04DX003 (ip), vehicle: other): 120 % of control

CCCN(CCC)CCC(=O)OCC
T/C [9]: 97 % of control | T/C [3]: 97 % of control | T/C [10]: 97 % of control | T/C [4]: 114 % of control | T/C [11]: 100 % of control | T/C [5]: 100 % of control

CC(=O)OC1CCC2(C)C(=CCC3C2CCC2(C)C(OC(=O)c4ccccc4)CCC32)C1 (stereo unspecified)
T/C [6]: 104 % of control | T/C [7]: 90 % of control | T/C [8]: 86 % of control

O=Cc1ccccc1
T/C (endpoint: mean survival time, dose: 12.5 mg/kg/injection, schedule: Q01DX009 (ip), vehicle: Klucel (hydroxypropylcellulose) (HPC)): 101 % of control | T/C (endpoint: mean survival time, dose: 25.0 mg/kg/injection, schedule: Q01DX009 (ip), vehicle: Klucel (hydroxypropylcellulose) (HPC)): 95 % of control and 102 % of control | T/C (endpoint: mean survival time, dose: 50.0 mg/kg/injection, schedule: Q01DX009 (ip), vehicle: Klucel (hydroxypropylcellulose) (HPC)): 96 % of control and 100 % of control | T/C (endpoint: mean survival time, dose: 100.0 mg/kg/injection, schedule: Q01DX009 (ip), vehicle: Klucel (hydroxypropylcellulose) (HPC)): 97 % of control and 102 % of control | T/C (endpoint: mean survival time, dose: 200.0 mg/kg/injection, schedule: Q01DX009 (ip), vehicle: Klucel (hydroxypropylcellulose) (HPC)): 97 % of control and 105 % of control | T/C (endpoint: mean survival time, dose: 400.0 mg/kg/injection, schedule: Q01DX009 (ip), vehicle: Klucel (hydroxypropylcellulose) (HPC)): 92 % of control and 93 % of control

NC(=O)/C(=N/O)c1ccccc1
T/C [3]: 104 % of control | T/C [4]: 106 % of control | T/C [5]: 102 % of control

COC(=O)NS(=O)(=O)Nc1ccccc1
T/C [9]: 93 % of control | T/C [10]: 93 % of control | T/C [11]: 87 % of control
